From patent US20230131899A1, “INHIBITORS OF MICROBIALLY INDUCED AMYLOID” (Axial Therapeutics, Inc., priority 2020, published 2023)
Like-named read-outs stand apart in the source and are kept apart here.

Assays:
E. coli CsgA = target: T1, E. coli CsgA (Escherichia coli, UniProt P28307); assay: In vitro ThioflavinT assay of CsgA aggregation (CsgA ThT Assay); assay type: biochemical; settings: for remaining activity at 25 µM: compound 25 μM; for remaining activity at 100 µM: compound 100 μM
T1 construct: made in house; host or cells: E. coli NEB 3016 slyD::kan, pET11d
Procedure, shortened: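 Purified C-terminal His-tagged CsgA, monomerised by desalting and 30-kDa filtration, at 2-20 μM with 20-40 μM ThT in 50 mM potassium phosphate pH 7.3, 1% DMSO, compounds 3.125-200 uM; room temperature, fluorescence (ex 438/em 495 nm) read every 15 min. Background-subtracted signal expressed as percent inhibition versus vehicle at 6-6.5 or 8-9 h, or as percent control AUC.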

[1] = system: CsgA gene expression (csgBAC promoter-GFP reporter) in E. coli UTI89; assay: In vitro live cell fluorescent reporter assay of CsgA transcription (Reporter Assay); assay type: cell-based; settings: Escherichia coli
Procedure, shortened: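 Chromosomal single-copy csgBAC promoter–GFP reporter in E. coli UTI89, started at OD600 0.003 in YESCA broth with compound (0.14–100 μM, 1% DMSO), 20 h at 27 °C. GFP (ex 485/em 525 nm) background-subtracted and normalized to vehicle; IC50 and X[50] from curve fits. OD600 tracked growth effects.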

[2] = read-out: CsgA ThT Assay (2 μM CsgA) % Control Bmax 25 μM, activity range, class symbol, CsgA 2 μM, white plates
[3] = read-out: CsgA ThT Assay (2 μM CsgA) % Control Bmax 25 μM, mean Bmax as percentage of DMSO control, CsgA 2 μM, white plates
[4] = read-out: CsgA ThT Assay (2 μM CsgA) % Control Bmax 100 μM, activity range, class symbol, CsgA 2 μM, white plates
[5] = read-out: CsgA ThT Assay (2 μM CsgA) % Control Bmax 100 μM, mean Bmax as percentage of DMSO control, CsgA 2 μM, white plates
[6] = read-out: Reporter Assay Abs IC50 (μM), median Abs IC50 in the CsgA reporter assay, N/A = maximum expression reduction is <50% of control
[7] = read-out: Reporter Assay Abs IC50, activity range, class symbol
[8] = read-out: CsgA ThT Assay (10 μM CsgA) % Control AUC at 1005 minutes, 25 μM (activity range), CsgA 10 μM, black plates, 1005 minutes, class symbol
[9] = read-out: CsgA ThT Assay (10 μM CsgA) % Control AUC at 1005 minutes, 25 μM, mean AUC as % of DMSO control, CsgA 10 μM, black plates, 1005 minutes
[10] = read-out: CsgA ThT Assay (10 μM CsgA) % Control AUC at 1005 minutes, 100 μM (activity range), CsgA 10 μM, black plates, 1005 minutes, class symbol
[11] = read-out: CsgA ThT Assay (10 μM CsgA) % Control AUC at 1005 minutes, 100 μM, mean AUC as % of DMSO control, CsgA 10 μM, black plates, 1005 minutes
[12] = read-out: Reporter Assay Abs IC50 (activity range), median Abs IC50 in the CsgA reporter assay, class symbol

T1 sequence (P28307 23-151): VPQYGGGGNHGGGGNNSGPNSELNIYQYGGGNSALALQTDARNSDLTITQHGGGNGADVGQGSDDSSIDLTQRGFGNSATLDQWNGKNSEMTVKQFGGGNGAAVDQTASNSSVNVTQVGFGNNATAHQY

Row | Compound | remaining activity at 25 µM (E. coli CsgA; [2]) [%] | remaining activity at 25 µM (E. coli CsgA; [3]) [%] | remaining activity at 100 µM (E. coli CsgA; [4]) [%] | remaining activity at 100 µM (E. coli CsgA; [5]) [%] | IC50 [1, 6] [µM] | IC50 [1, 7] [µM] | remaining activity at 25 µM (E. coli CsgA; [8]) [%] | remaining activity at 25 µM (E. coli CsgA; [9]) [%] | remaining activity at 100 µM (E. coli CsgA; [10]) [%] | remaining activity at 100 µM (E. coli CsgA; [11]) [%] | IC50 [1, 12] [µM]
1 | O=C(O)C1CN(Cc2ccccc2)c2c(-c3cccc(C(F)(F)F)c3)c(Cc3cccc4cnccc34)c(Cl)c(=O)n21 (stereo not shown) [Compound 212, 1-benzyl-6-chloro-7-(isoquinolin-5-ylmethyl)-5-oxo-8-(3-(trifluoromethyl)phenyl)-1,2,3,5-tetrahydroimidazo[1,2-a]pyridine-3-carboxylic acid] | > 60 | 64 | 31 to 60 | 56 | 13 | > 10 |  |  |  |  | 
2 | O=C(O)C1CSc2c(-c3cccc(C(F)(F)F)c3)c(C(F)(F)c3cccc4ccccc34)nc(=O)n21 (stereo not shown) [Compound 063, 7-(difluoro(naphthalen-1-yl)methyl)-5-oxo-8-(3-(trifluoromethyl)phenyl)-2,3-dihydro-5H-thiazolo[3,2-c]pyrimidine-3-carboxylic acid] |  |  |  |  | 11.2 |  | > 60 | 61 | 11 to 31 | 21 | > 10
3 | O=C(O)C1CN(Cc2ccccn2)c2c(-c3cccc(C(F)(F)F)c3)c(Cc3cccc4ccccc34)c(Cl)c(=O)n21 (stereo not shown) [Compound 166, 6-chloro-7-(naphthalen-1-ylmethyl)-5-oxo-1-(pyridin-2-ylmethyl)-8-(3-(trifluoromethyl)phenyl)-1,2,3,5-tetrahydroimidazo[1,2-a]pyridine-3-carboxylic acid] | > 60 | 72 | 31 to 60 | 40 | 2.5 | 1.3 to 4.5 |  |  |  |  | 
4 | O=C(O)C1CN(Cc2ccccc2)c2c(-c3cccc(C(F)(F)F)c3)c(Cc3cccc4ncccc34)c(Cl)c(=O)n21 (stereo not shown) [Compound 211, 1-benzyl-6-chloro-5-oxo-7-(quinolin-5-ylmethyl)-8-(3-(trifluoromethyl)phenyl)-1,2,3,5-tetrahydroimidazo[1,2-a]pyridine-3-carboxylic acid] | > 60 | 85 | > 60 | 65 | 20.6 | > 10 |  |  |  |  | 
5 | CN1CC(C(=O)O)n2c(c(-c3cccc(C(F)(F)F)c3)c(Cc3cccc4ccccc34)c(Br)c2=O)S1(=O)=O (stereo not shown) [Compound 058, 7-bromo-2-methyl-8-(naphthalen-1-ylmethyl)-6-oxo-9-(3-(trifluoromethyl)phenyl)-3,4-dihydro-2H,6H-pyrido[1,2-e][1,2,5]thiadiazine-4-carboxylic acid 1,1-dioxide] |  |  |  |  | 19.8 |  | 31 to 60 | 47 | 11 to 31 | 22 | > 10
6 | CCc1c(Cc2cccc3ccccc23)c(-c2cccc(C(F)(F)F)c2)c2n(c1=O)C(C(=O)O)CN([C@H]1CC[C@@H](O)CC1)S2(=O)=O (stereo partly shown) [Compound 124, 7-ethyl-2-((1s,4s)-4-hydroxycyclohexyl)-8-(naphthalen-1-ylmethyl)-6-oxo-9-(3-(trifluoromethyl)phenyl)-3,4-dihydro-2H,6H-pyrido[1,2-e][1,2,5]thiadiazine-4-carboxylic acid 1,1-dioxide] |  |  |  |  | 3.1 |  | 31 to 60 | 35 | 11 to 31 | 21 | 1.3 to 4.5
7 | CN1CC(C(=O)O)n2c(c(-c3cccc(C(F)(F)F)c3)c(Cc3cccc4ccccc34)c(C(=O)N3CCCC3)c2=O)S1(=O)=O (stereo not shown) [Compound 186, 2-methyl-8-(naphthalen-1-ylmethyl)-6-oxo-7-(pyrrolidine-1-carbonyl)-9-(3-(trifluoromethyl)phenyl)-3,4-dihydro-2H,6H-pyrido[1,2-e] [1,2,5] thiadiazine-4-carboxylic acid 1,1-dioxide] | > 60 | 117 | > 60 | 72 | 4.7 | 4.6 to 10 |  |  |  |  | 
8 | COc1ccc(CN2C[C@H](C(=O)O)n3c(c(-c4cccc(C(F)(F)F)c4)c(Cc4cccc5ccccc45)cc3=O)S2(=O)=O)cc1 (single isomer, unassigned) [Compound 026b] |  |  |  |  | 2.8 |  | 31 to 60 | 47 |  |  | 1.3 to 4.5
9 | O=C(O)C1CN(C(CO)CO)S(=O)(=O)c2c(-c3cccc(C(F)(F)F)c3)c(Cc3cccc4ccccc34)cc(=O)n21 (stereo not shown) [Compound 106, 2-(1,3-dihydroxypropan-2-yl)-8-(naphthalen-1-ylmethyl)-6-oxo-9-(3-(trifluoromethyl)phenyl)-3,4-dihydro-2H,6H-pyrido[1,2-e][1,2,5]thiadiazine-4-carboxylic acid 1,1-dioxide] |  |  |  |  | 28.3 |  | > 60 | 95 | 31 to 60 | 38 | > 10
10 | Nc1c(Cc2cccc3ccccc23)c(-c2cccc(C(F)(F)F)c2)c2n(c1=O)C(C(=O)O)CNS2(=O)=O (stereo not shown) [Compound 082, 7-amino-8-(naphthalen-1-ylmethyl)-6-oxo-9-(3-(trifluoromethyl)phenyl)-3,4-dihydro-2H,6H-pyrido[1,2-e][1,2,5]thiadiazine-4-carboxylic acid 1,1-dioxide] |  |  |  |  | 17.5 |  | 31 to 60 | 51 | 11 to 31 | 12 | > 10
11 | CCc1c(Cc2cccc3ccccc23)c(-c2cccc(C(F)(F)F)c2)c2n(c1=O)C(C(=O)O)CN(CCCCO)S2(=O)=O (stereo not shown) [Compound 113, 7-ethyl-2-(4-hydroxybutyl)-8-(naphthalen-1-ylmethyl)-6-oxo-9-(3-(trifluoromethyl)phenyl)-3,4-dihydro-2H,6H-pyrido[1,2-e][1,2,5]thiadiazine-4-carboxylic acid 1,1-dioxide] |  |  |  |  | 4.6 |  | 31 to 60 | 41 | 11 to 31 | 24 | 4.6 to 10
12 | CC(C)CN1CC(C(=O)O)n2c(c(-c3cccc(C(F)(F)F)c3)c(Cc3cccc4ccccc34)c(NC3CCCC3)c2=O)S1(=O)=O (stereo not shown) [Compound 145, 7-(cyclopentylamino)-2-isobutyl-8-(naphthalen-1-ylmethyl)-6-oxo-9-(3-(trifluoromethyl)phenyl)-3,4-dihydro-2H,6H-pyrido[1,2-e][1,2,5]thiadiazine-4-carboxylic acid 1,1-dioxide] | > 60 | 76 | 31 to 60 | 39 | 2 | 1.3 to 4.5 |  |  |  |  | 
13 | CN1CC(C(=O)O)n2c(c(-c3cccc(C(F)(F)F)c3)c(Cc3cccc4ccccc34)c(NC3CCOCC3)c2=O)S1(=O)=O (stereo not shown) [Compound 072, 2-methyl-8-(naphthalen-1-ylmethyl)-6-oxo-7-((tetrahydro-2H-pyran-4-yl)amino)-9-(3-(trifluoromethyl)phenyl)-3,4-dihydro-2H,6H-pyrido[1,2-e][1,2,5]thiadiazine-4-carboxylic acid 1,1-dioxide] |  |  |  |  | 6.9 |  | 11 to 31 | 24 | < 10 | 10 | 4.6 to 10
14 | O=C(O)C1CN(CCO)S(=O)(=O)c2c(-c3cccc(C(F)(F)F)c3)c(Cc3cccc4ccccc34)cc(=O)n21 (stereo not shown) [Compound 084, 2-(2-hydroxyethyl)-8-(naphthalen-1-ylmethyl)-6-oxo-9-(3-(trifluoromethyl)phenyl)-3,4-dihydro-2H,6H-pyrido[1,2-e][1,2,5]thiadiazine-4-carboxylic acid 1,1-dioxide] |  |  |  |  | 27 |  | 31 to 60 | 57 | 11 to 31 | 19 | > 10
